SMILES strings stand for the structures.

These results are taken from US11319309B2, “Cyclohexyl acid isoxazole azines as LPA antagonists” (BRISTOL-MYERS SQUIBB COMPANY, priority 2017, dated 2022).

The target in one assay is T1, human LPA1 (Homo sapiens, UniProt Q92633).
T1 construct: expressed in transfected cells; host or cells: Chinese hamster ovary (CHO) cells
As to the kind of experiment: LPA1 functional antagonist assay (calcium flux). The class given is cell-based. The conditions noted are these: CHO cells overexpressing human LPA1; inhibition of calcium flux induced by 10 nM LPA; read-out: hLPA1 IC50. As for the experimental part: The effectiveness of compounds of the present invention as LPA1 inhibitors can be determined in an LPA1 functional antagonist assay as follows:
Chinese hamster ovary cells overexpressing human LPA1 were plated overnight (15,000 cells/well) in poly-D-lysine coated 384-well microplates (Greiner bio-one, Cat #781946) in DMEM/F12 medium (Gibco, Cat #11039). Following overnight culture, cells were loaded with calcium indicator dye (AAT Bioquest Inc, Cat #34601) for 30 minutes at 37° C. The cells were then equilibrated to room temperature for 30 minutes before the assay. Test compounds solubilized in DMSO were transferred to 384 well non-binding surface plates (Corning, Cat #3575) using the Labcyte Echo acoustic dispense and diluted with assay buffer [1X HBSS with calcium/magnesium (Gibco Cat #14025-092), 20 mM HEPES (Gibco Cat #15630-080) and 0.1% fatty acid free BSA (Sigma Cat # A9205)] to a final concentration of 0.5% DMSO. Diluted compounds were added to the cells by FDSS6000 (Hamamatsu) at final concentrations ranging from 0.08 nM to 5 μM. and were then incubated for 20 min at room temperature at which time LPA (Avanti Polar Lipids Cat #857130C) was added at final concentrations of 10 nM to stimulate the cells. The compound IC50 value was defined as the concentration of test compound which inhibited 50% of the calcium flux induced by LPA alone. IC50 values were determined by fitting data to a 4-parameter logistic equation (GraphPad Prism, San Diego Calif.).
(Calcium assays in cells follow changes in intracellular calcium, usually with a dye or a luminescent sensor.)

For a further assay, the system named is IPF patients. The settings on record: 26-week clinical trial, IPF patients (Palmer et al., Chest 2018); cited from earlier work.
In the next assay the test system is nerve-injured mice. The settings on record: pretreatment, nerve-injured mice (Inoue et al. 2004); cited from earlier work.
Assay [1] relates to human foetal lung fibroblasts. The settings on record: induced by BAL obtained from IPF patients (Tager et al. 2008); cited from earlier work.
The subject of a further assay is UUO mice. The settings on record: UUO mice treated with antagonist, compared with LPA1 (-/-) mice; cited from earlier work.
Assay [2] concerns mouse epithelial renal cell line, MCT. The conditions noted are these: MCT cells, co-treatment with LPA; cited from earlier work.
Assay [3] has as its system pancreatic cancer cell lines. The conditions noted are these: cited from earlier work.

T1 sequence (Q92633 whole entry): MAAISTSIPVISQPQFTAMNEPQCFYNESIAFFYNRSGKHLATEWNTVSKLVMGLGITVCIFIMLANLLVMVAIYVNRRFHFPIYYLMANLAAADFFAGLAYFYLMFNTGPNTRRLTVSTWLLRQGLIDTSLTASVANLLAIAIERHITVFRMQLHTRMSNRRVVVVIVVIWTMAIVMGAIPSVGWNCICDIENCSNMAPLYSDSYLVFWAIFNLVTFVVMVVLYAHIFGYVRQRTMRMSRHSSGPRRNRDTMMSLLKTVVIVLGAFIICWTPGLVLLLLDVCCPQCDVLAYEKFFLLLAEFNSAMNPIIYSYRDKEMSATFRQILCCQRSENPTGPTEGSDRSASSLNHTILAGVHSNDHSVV

Turning to `Cc1noc(-c2ccc(O[C@@H]3CCC[C@H](C(=O)O)C3)cc2)c1COc1nccc(-c2ccccc2)n1` (racemic) [Example 29, (±)-Cis-3-(4-(3-Methyl-4-(((4-phenylpyrimidin-2-yl)oxy)methyl)isoxazol-5-yl)phenoxy)cyclo-hexanecarboxylic Acid], the half-inhibitory concentration (IC50) at human LPA1 amounted to 209 nM. Turning to `Cc1noc(-c2ccc(O[C@@H]3CCC[C@@H](C(=O)O)C3)cc2)c1COc1nccc(-c2ccccc2)n1` (racemic) [Example 30, (±)-Trans-3-(4-(3-methyl-4-(((4-phenylpyrimidin-2-yl)oxy)methyl)isoxazol-5-yl)phenoxy)cyclohexanecarboxylic Acid], the IC50 at human LPA1 was determined as 47 nM. Take `Cc1noc(-c2ccc(-c3ccc(C4(C(=O)O)CC4)cc3)cc2)c1NC(=O)O[C@H](C)c1ccccc1` [BMS-986020]: the “rate of FVC (forced vital capacity) decline” value with IPF patients is “significantly reduce”. With `Cc1noc(-c2ccc(O[C@H]3CCC[C@H](C(=O)O)C3)cn2)c1CNc1nccc(-c2ccccc2)n1` [Example 1, (1S,3S)-3-((6-(3-methyl-4-(((4-phenylpyrimidin-2-yl)amino)methyl)isoxazol-5-yl)pyridin-3-yl)oxy) cyclohexane-1-carboxylic Acid], at human LPA1, the IC50 worked out at 14 nM. As to `Cc1nc(-c2onc(C)c2CNc2ncnc(C(C)C)n2)ccc1O[C@H]1CCC[C@H](C(=O)O)C1` [Example 2, (1 S,3 S)-3-((6-(4-(((4-isopropyl-1,3,5-triazin-2-yl)amino)methyl)-3-methylisoxazol-5-yl)-2-methylpyridin-3-yl)oxy)cyclohexane-1-carboxylic Acid], the IC50 at human LPA1 worked out at 43 nM.

Regarding `Cc1noc(-c2ccc(O[C@H]3CCC[C@H](C(=O)O)C3)cn2)c1CNc1nccc(-c2ccccc2)n1` [Example 3], the IC50 at human LPA1 stood at 18 nM. As for `Cc1noc(-c2ccc(O[C@H]3CCC[C@@H](C(=O)O)C3)cn2)c1CNc1nccc(-c2ccccc2)n1` [Example 4], the IC50 at human LPA1 was found to be 39 nM.

As to `Cc1noc(-c2ccc(O[C@H]3CCC[C@H](C(=O)O)C3)cn2)c1CNc1cc(-c2ccccc2)ccn1` [Example 5], at human LPA1, the IC50 is 21 nM. In the case of `Cc1noc(-c2ccc(O[C@H]3CCC[C@](F)(C(=O)O)C3)cn2)c1CNc1nccc(-c2ccccc2)n1` [Example 6], the IC50 at human LPA1 worked out at 7.8 nM. In the case of `Cc1noc(-c2ccc(O[C@H]3CCC[C@H](C(=O)O)C3)cn2)c1CNc1nccc(Oc2ccccc2)n1` [Example 7], the IC50 at human LPA1 turned out to be 6 nM.

`Cc1cc(-c2ccccc2)nc(NCc2c(C)noc2-c2ccc(O[C@H]3CCC[C@H](C(=O)O)C3)cn2)n1` [Example 8]: at human LPA1, the IC50 was determined as 16 nM.

On to `Cc1cc(Oc2ccccc2)nc(NCc2c(C)noc2-c2ccc(O[C@H]3CCC[C@H](C(=O)O)C3)cn2)n1` [Example 9], for which, at human LPA1, the IC50 came out at 20 nM.

For the molecule `Cc1noc(-c2ccc(O[C@H]3CCC[C@H](C(=O)O)C3)cn2)c1CNc1nccc(C2CC2)n1` [Example 10], the IC50 at human LPA1 stood at 18 nM. With `Cc1cc(OC(C)C)nc(NCc2c(C)noc2-c2ccc(O[C@H]3CCC[C@H](C(=O)O)C3)cn2)n1` [Example 11], the IC50 on human LPA1 was found to be 17 nM. `Cc1cc(N2CCCCC2)nc(NCc2c(C)noc2-c2ccc(O[C@H]3CCC[C@H](C(=O)O)C3)cn2)n1` [Example 12]: the IC50 on human LPA1 was 1100 nM.

Consider `Cc1noc(-c2ccc(O[C@H]3CCC[C@H](C(=O)O)C3)cn2)c1CNc1nccc(-c2ccccn2)n1` [Example 13], for which the IC50 on human LPA1 came out at 32 nM.

Take `Cc1nc(-c2onc(C)c2CNc2nccc(-c3ccccn3)n2)ccc1O[C@H]1CCC[C@H](C(=O)O)C1` [Example 14]: the IC50 at human LPA1 is 64 nM. Consider `Cc1cnc(NCc2c(C)noc2-c2ccc(O[C@H]3CCC[C@H](C(=O)O)C3)cn2)nc1-c1ccccc1` [Example 15], for which, on human LPA1, the IC50 is 4.9 nM. Take `Cc1noc(-c2ccc(O[C@H]3CCC[C@@H](C(=O)O)C3)cn2)c1CNc1nccc(-c2ccccc2)n1` [Example 16]: the IC50 at human LPA1 was found to be 14 nM. As for `CCOc1ccnc(NCc2c(C)noc2-c2ccc(O[C@H]3CCC[C@H](C(=O)O)C3)c(C)n2)n1` [Example 17, (1S,3S)-3-((6-(4-(((4-Ethoxypyrimidin-2-yl)amino)methyl)-3-methylisoxazol-5-yl)-2-methylpyridin-3-yl)oxy)cyclohexane-1-carboxylic Acid], the IC50 at human LPA1 came to 26 nM. Consider `Cc1nc(-c2onc(C)c2CNc2ncc(F)c(NC(C)C)n2)ccc1O[C@H]1CCC[C@H](C(=O)O)C1` [Example 18], for which, at human LPA1, the IC50 turned out to be 88 nM. Turning to `Cc1nc(-c2onc(C)c2CNc2ncnc(C3CC3)n2)ccc1O[C@H]1CCC[C@H](C(=O)O)C1` [Example 19], the IC50 on human LPA1 stood at 76 nM. As for `Cc1nc(-c2onc(C)c2CNc2ncnc(C3CCC3)n2)ccc1O[C@H]1CCC[C@H](C(=O)O)C1` [Example 20], the IC50 on human LPA1 was 64 nM. As to `Cc1nc(-c2onc(C)c2CNc2ncnc(C3CCCC3)n2)ccc1O[C@H]1CCC[C@H](C(=O)O)C1` [Example 21], on human LPA1, the IC50 is 60 nM. Consider `Cc1noc(-c2ccc(O[C@@H]3CCC[C@@H](C(=O)O)C3)cc2)c1CNc1nccc(-c2ccccc2)n1` [Example 22], for which the IC50 on human LPA1 turned out to be 47 nM. Still for that read-out and setting: the figure for `CCOc1ccnc(NCc2c(C)noc2-c2ccc(O[C@H]3CCC[C@H](C(=O)O)C3)cn2)n1` [Example 23] is 14 nM; for `Cc1noc(-c2ccc(O[C@H]3CCC[C@H](C(=O)O)C3)cn2)c1CNc1ncc(F)c(NC(C)C)n1` [Example 24] it is 32 nM. The same measure, in the same setting: the value for `Cc1noc(-c2ccc(O[C@H]3CCC[C@H](C(=O)O)C3)cn2)c1CNc1ncnc(C2CC2)n1` [Example 25] was 29 nM; that for `Cc1noc(-c2ccc(O[C@H]3CCC[C@H](C(=O)O)C3)cn2)c1CNc1ncnc(C(C)C)n1` [Example 26] was 38 nM. The same measure, in the same setting: the value for `Cc1noc(-c2ccc(O[C@H]3CCC[C@H](C(=O)O)C3)cn2)c1CNc1ncnc(C2CCC2)n1` [Example 27] was 33 nM. In the case of `Cc1noc(-c2ccc(O[C@H]3CCC[C@H](C(=O)O)C3)cn2)c1CNc1ncnc(C2CCCC2)n1` [Example 28], the IC50 at human LPA1 turned out to be 24 nM.

Consider `C[C@@H](N)[C@H]1CC[C@H](C(=O)Nc2ccncc2)CC1` [Example Y-27632], for which the allodynia and hyperalgesia entry in the assay on nerve-injured mice is listed as “completely abolished”. With `Cc1noc(-c2ccc(CSCCC(=O)O)cc2)c1NC(=O)OC(C)c1ccccc1Cl` (stereo not shown) [Ki16425], the “chemotaxis of human foetal lung fibroblasts” value in assay [1] is “blocked”. In addition, in the assay with UUO mice, the “development of renal fibrosis” value is given as “closely resembled the profile of LPA1 (−/−) mice”. Besides, the “induction of CTGF expression by LPA” value in assay [2] is listed as “almost completely suppressed”. The “LPA-induced and ascites-induced invasion activity” value in assay [3] (highly peritoneal metastatic pancreatic cancer cell line (Yamada et al. 2004)) was “blocked”. Besides, in assay [3] (pancreatic cancer cell lines (Yamada et al. 2004)), the “in vitro migration in response to LPA and peritoneal fluid (ascites)” value was “effectively blocked”.

Broadly, the IC50 is the concentration that gives 50% inhibition.
